Data on one molecule can be found in patent US20050106258A1, “Pharmacology and manufacturing method of Bombyx moriL related bioproduct” (priority 2003, published 2005).

The subject of test [1] is cGMP. Nature of the test: cGMP content in rat plasma (125I-cGMP RIA). The test is classed as in vivo, rats. Particulars: 1.5 hours after administration, P < 0.001 vs control (2.59 ± 0.48). The protocol: (§1) According to the aim of the experiment, IRA was performed to estimate cGMP content in plasma and cavernous boby of 50 male rats which were administrated by 2 dosages of […] product mainly consisting of bombyx moriL in our ladoratory. Change caused by […] product mainly consisting of bombyx moriL at 1.5 hours after administration was wholly observed. I. Rats: 50 healthy rats were randomly divided into 5 groups, every group is 10 rats 1. Product Mainly Consisting of Bombyx moriL Group: there were two dosage group 200 mg/kg, 400 mg/kg. 2. Viagra Group: two group, 6 mg/kg, 12 mg/kg. 3. Control Group: NS, 0.4 ML/rat. Medicine Dispensing: Viagra and Product Mainly Consisting of Bombyx moriL was dissolved by certain mount of NS. Administration Method: All Group was e.g. for One Time. Anticoagulant 50 u l EDTA was added into blood test tube.lml blood was taken in rat's veniplex orbita posterior. Test tubes was stood in ice-water mixture and were centrifugated 200 rpm for 10 minutes. […] Our laboratory used 125I-cGMP-RIA kit by Isotope Laboratory, detecting Method was double antiboby radioimmune method. The experiment sensitivity is 0.008 pmol/ml, most combination rate of detection is 82.7%,non […] combination rate is 5.0%.

Test [2] has as its system cGMP. In words: cGMP content in rat cavernous body (125I-cGMP RIA). The class given is in vivo, rats. Particulars: 1.5 hours after administration. The protocol:
as §1, with “Time.” for “Time. Anticoagulant 50 u l EDTA was added into blood test tube.lml blood was taken in rat's veniplex orbita posterior. Test tubes was stood in ice-water mixture and were centrifugated 200 rpm for 10 minutes.”

Another test concerns nitric oxide (NO). Nature of the test: Nitric oxide contents in the corpora cavernosa of penis in male rats (nitrate reductase method). The test is classed as in vivo. From the text:
It has been approved in literatures that nitric oxide (NO) is formed in the endothelial cells in blood vessels and NO plays as an important signal transmitter in many physical activities of the human body. Nitric Oxide exists in many organs and tissues such as brain, blood vessels, liver, lung, pancreas, immune and reproductive systems. On the basis of No on wide-ranging regulative activities in the human physiological process, the Nitric Oxide contents, in the Sera and the Corpora Cavernosa of Penis in 50 normal male rats, were measured by nitrate reductase method for two dosages of product mainly consisting of bombyx moriL and Sildenafil Citrate(Viagra).On a half and one hour after the drug administrations, the variations of NO content were compared with the two drugs treated animals as a whole situation. The results are: (1) In the rat serum of the tested drug groups, there are distinct NO content differences with statistical […] compared the No contents of the low dosage groups of the two drugs with the control group's, and there are very distinct NO content differences with statistical significance (p<0.001) in the high dosage groups of the two drugs. […]

Counter-ions that a name gives are not always drawn.

For the molecule `CCCc1nn(C)c2c(=O)[nH]c(-c3cc(S(=O)(=O)N4CCN(C)CC4)ccc3OCC)nc12` [Viagra, Sildenafil citrate], the “cGMP content in plasma, X ± SD” value in the test on cGMP [1] (Viagra 6 mg/kg) came to 4.53 ± 0.67 pmol/mL; in the test with cGMP [1] (Viagra 12 mg/kg) it was 4.42 ± 0.97 pmol/mL. Moreover, the “cGMP content in cavernous body, X ± SD” value is 0.40 ± 0.26 pmol/mL in the test on cGMP [2] (Viagra 6 mg/kg, P < 0.1 vs control (0.25 ± 0.05)) and 0.53 ± 0.12 pmol/mL with cGMP [2] (Viagra 12 mg/kg, P < 0.001 vs control (0.25 ± 0.05)). Also, the “NO contents X ± SD, corpora cavernosa” value with nitric oxide (NO) (Viagra high 12 mg/kg, P < 0.05 vs negative control (29.2 ± 5.37)) worked out at 48.52 ± 17.95 µmol/L; in the test with nitric oxide (NO) (Viagra low 6 mg/kg, P < 0.01 vs negative control (29.2 ± 5.37)) it was 44.88 ± 9.47 µmol/L.
